Reference: article PMC6934184, “Selective DNA-PKcs inhibition extends the therapeutic index of localized radiotherapy and chemotherapy” (The Journal of Clinical Investigation, 2019)

Biological target: T1, SNF1LK2 (Homo sapiens, UniProt Q9H0K1)
T1 construct: purchased Thermo Fisher Scientific (Life Technologies) SelectScreen
Test: SelectScreen Z'LYTE
Type: biochemical
How it was run: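 Percent values come from Thermo SelectScreen profiling of NU5455, combining activity and binding assays. CSF1R was run in Z'LYTE format at Km app ATP, and CAMK1 in Adapta format with ATP listed at 10.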

T1 sequence (Q9H0K1 whole entry): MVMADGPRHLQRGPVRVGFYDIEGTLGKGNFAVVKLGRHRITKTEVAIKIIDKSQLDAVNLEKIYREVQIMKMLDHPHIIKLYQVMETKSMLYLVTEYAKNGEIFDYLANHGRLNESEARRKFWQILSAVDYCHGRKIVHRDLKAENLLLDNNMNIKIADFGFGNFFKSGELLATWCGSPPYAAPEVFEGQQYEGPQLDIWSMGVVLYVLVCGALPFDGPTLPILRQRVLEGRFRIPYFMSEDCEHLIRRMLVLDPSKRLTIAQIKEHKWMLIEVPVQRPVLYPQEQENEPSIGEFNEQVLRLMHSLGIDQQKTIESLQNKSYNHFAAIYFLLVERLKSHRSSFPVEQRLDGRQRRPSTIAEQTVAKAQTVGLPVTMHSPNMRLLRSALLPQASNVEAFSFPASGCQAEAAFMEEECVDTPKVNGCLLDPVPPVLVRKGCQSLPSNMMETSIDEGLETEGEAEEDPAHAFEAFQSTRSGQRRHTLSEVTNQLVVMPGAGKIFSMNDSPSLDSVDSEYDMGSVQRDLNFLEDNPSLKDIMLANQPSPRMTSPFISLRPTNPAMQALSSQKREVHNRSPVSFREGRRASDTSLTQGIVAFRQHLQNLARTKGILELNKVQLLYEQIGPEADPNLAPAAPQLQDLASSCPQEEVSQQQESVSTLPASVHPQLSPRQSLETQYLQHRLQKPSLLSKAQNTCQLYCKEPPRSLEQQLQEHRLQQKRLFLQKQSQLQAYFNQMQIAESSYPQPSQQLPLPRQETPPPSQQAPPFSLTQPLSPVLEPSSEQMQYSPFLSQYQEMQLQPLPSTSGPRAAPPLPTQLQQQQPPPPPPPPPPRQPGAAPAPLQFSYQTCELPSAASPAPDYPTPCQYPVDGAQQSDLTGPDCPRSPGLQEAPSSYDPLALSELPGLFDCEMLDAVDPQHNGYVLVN

CN(C(=O)CN1CCOCC1)c1ccc2sc3c(-c4cccc5c(=O)cc(N6CC7CCC(C6)O7)oc45)cccc3c2c1 [NU5455]
inhibition at 1 µM: 26.6%
